# According to patent US7202278B2, “4-fluoro-N-indan-2-yl benzamide and its use as a pharmaceutical” (Sanofi-Aventis Deutschland GmbH, priority 2001, dated 2007):
# Assays:
# eNOS promoter = experiment: Activation of eNOS transcription (eNOS promoter-luciferase reporter); format: cell-based, human; settings: 18 h incubation
# Description: Activation of eNOS transcription was measured as described in detail in Li et al. “Activation of protein kinase C alpha and/or epsilon enhances transcription of the human endothelial nitric oxide synthase gene”, Mol. Pharmacol. 1998, 53: 630–637.
# Briefly, a 3.5 kB long fragment 5′ of the starting codon of the eNOS gene was cloned, sequenced and cloned in firefly luciferase expression plasmids to monitor activation of the eNOS promoter by reporter gene activity. A human endothelial cell line stable transfected and expressing this promoter-reporter construct was used for compound testing. Cells were incubated for 18 h with the compound (I).
# Prior to incubation of the cells, the compound (I) was dissolved in sterile DMSO. A final concentration of 0.5% DMSO in complete medium was obtained. Induction of reporter gene expression in these cells was measured using a standard luciferase assay system (Promega, Cat. No E150) according to the manufacturer's instructions. Luciferase induction in cells incubated with compound (I) were compared to those incubated with solvent alone. The ratio of both activities (transcription induction ratio, TIR) was plotted as a function of compound concentration. […] EC50 values of transcription induction ratios as a function of compound concentration were determined graphically.
# eNOS protein expression = experiment: eNOS protein detection in HUVEC by quantitative Western blotting; format: cell-based, human; settings: 18 h incubation
# Description: The effect of the compound (I) on eNOS-transcription was confirmed in a second assay based on eNOS protein detection. Primary human umbilical vein cord endothelial cells (HUVEC) were isolated and cultivated according to standard procedures. Confluent cells were incubated with compound (I) for 18 h and the effect on eNOS protein expression determined by a quantitative Western blotting procedure. After incubation of compound (I), HUVEC were lysed in ice-cold lysis buffer containing 10 mM Tris-HCl, pH 8.0, 1% SDS and protease inhibitors. The lysate was subjected to a standard denaturating polyacrylamid gel electropheresis and blotted to nitrocellulose membranes. Using a specific primary monoclonal antibody (Transduction Laboratories, UK) and alkaline phosphatase labelled secondary antibody (Jackson Labs), a specific eNOS protein band was visualized and quantified based on a chemifluorescence detection method.
# ApoE deficient mice [1] = experiment: Anti-hypertensive effect in ApoE knockout mice (tail-cuff); format: in vivo; settings: 30 mg/kg/d p.o. in chow, after 4 months treatment, placebo 115±2 mmHg, p<0.05
# Source text: (§1) ApoE and eNOS deficient mice (C57BL/6J background, Jackson Laboratory, Bar Harbor, Me.) were used. All animals were 10–12 weeks of age and weighed 22 to 28 g. Three days before surgery, mice were divided into 4 groups (apoE control, n=10–12; apoE with compound (I), n=10–12; eNOS control, n=10–12; eNOS with compound (I), n=10–12) and received either a standard rodent chow (containing 4% fat and 0.001% cholesterol; in the following designated as placebo group) or a standard rodent chow+compound (I) (10 or 30 mg/kg/d p.o.).
# (§2) Blood-pressure was determined in conscious mice using a computerized tail-cuff system.
# eNOS deficient mice [2] = experiment: Blood pressure in eNOS deficient mice (tail-cuff); format: in vivo; settings: similar dosing, after 4 weeks treatment
# Source text: as §1, §2
# ApoE deficient mice [3] = experiment: Inhibition of neointima formation and atherogenesis (femoral artery cuff), ApoE deficient mice; format: in vivo
# Source text: as §1
# After 3 days treatment of ApoE deficient mice with compound (I), (10 mg/kg/d pressed in chow), animals were anesthetized with an intraperitoneal injection of pentobarbital (60 mg/kg) followed by an intramuscular injection of xylazin (2 mg/kg) and a cuff was placed around the femoral artery as described in Moroi et at. (J Clin Invest. 101:1225–32, 1998). Briefly, the left femoral artery was dissected. A non-occlusive 2.0 mm polyethylene cuff made of PE-50 tubing (inner diameter 0.56 mm, outer diameter 0.965 mm, Becton Dickinson, Mountain View, Calif.) was placed around the artery and tied in place with two 7–0 sutures. The right femoral artery was isolated from the surrounding tissues but a cuff was not placed. Treatment with compound (I) was continued for 14 days after surgery. Then the animals were sacrificed. The aortas were taken for determination of vascular eNOS expressions by quantitative western blotting. Both femoral arteries were harvested, fixed in formalin and embedded in paraffin. 20 cross sections (10 μm) were cut from the cuffed portion of the left femoral artery and from the corresponding segment of the right artery. Sections were subjected to standard hematoxylin and eosin staining. Morphometric analyses were performed using an image analysis computer program (LeicaQWin, Leica Imaging Systems, Cambridge, GB). For each cross section the area of the lumen, the neointima and the media were determined. […] The ratio between the area of the neointima and the area of the media was expressed as the neointima/media ratio.
# eNOS deficient mice [4] = experiment: Femoral artery cuff model in eNOS deficient mice; format: in vivo; settings: similar setup
# Source text: as §1
# After 3 days treatment of ApoE deficient mice with compound (I), (10 mg/kg/d pressed in chow), animals were anesthetized with an intraperitoneal injection of pentobarbital (60 mg/kg) followed by an intramuscular injection of xylazin (2 mg/kg) and a cuff was placed around the femoral artery as described in Moroi et at. (J Clin Invest. 101:1225–32, 1998). Briefly, the left femoral artery was dissected. […] The aortas were taken for determination of vascular eNOS expressions by quantitative western blotting. […] For each cross section the area of the lumen, the neointima and the media were determined. […] The ratio between the area of the neointima and the area of the media was expressed as the neointima/media ratio.
# ApoE deficient mice [5] = experiment: Prevention of atherosclerotic plaque formation in chronic treatment; format: in vivo
# Source text: as §1
# ApoE deficient mice were treated for 16 weeks with compound (I) pressed in chow and finally sacrificed. Aortas were removed from each mouse, fixed in formalin and embedded in paraffin. Plaque formation was measured via lipid lesions formation in the aortas (from aortic arch to diaphragm) and was analyzed by oil red O staining. For quantifying the effect of the respective compound on vascular eNOS expression the […] were used in this experiment.
# ApoE deficient mice [6] = experiment: Improvement of coronary function in diseased ApoE deficient mice (isolated working heart); format: in vivo
# Description: Old Male wild-type C57BL/6J mice (Charles River Wiga GmbH, Sulzfeld), and apolE deficient mice (C57BL/6J background, Jackson Laboratory, Bar Harbor, Me.) 6 month of age and weighing 28 to 36 g were used in the experiments. Mice were divided into 3 groups (C57BL/6, n=8; apoE control, n=8; apoE with compound (I), n=8) and received for 8 weeks either a standard rodent chow (containing 4% fat and 0.001% cholesterol) or a standard rodent chow+compound (I) (30 mg/kg/d p.o.).
# Mice were anesthetized with sodium pentobarbitone (100 mg/kg i.p.), and the hearts were rapidly excised and placed into ice-cold perfusion buffer. The aorta was cannulated and connected to a perfusion apparatus (HUGO SACHS ELECTRONICS, Freiburg, Germany) which was started immediately at a constant perfusion pressure of 60 mm Hg. Hearts were perfused in a retrograde fashion with modified Krebs bicarbonate buffer, equilibrated with 95% O2 and 5% CO2 and maintained at 37.5° C.
# A beveled small tube (PE 50) was passed through a pulmonary vein into the left ventricle and pulled through the ventricular wall, anchored in the apex by a fluted end, and connected to a tip-micromanometer (Millar 1.4 French). The left atrium was cannulated through the same pulmonary vein and the heart switched to the working mode with a constant preload pressure of 10 mm Hg and an afterload pressure of 60 mm Hg. Aortic outflow and atrial inflow were continuously measured using ultrasonic flow probes (HSE/Transonic Systems Inc.). Coronary flow was calculated as the difference between atrial flow and aortic flow. All hemodynamic data were digitized at a sampling rate of 1000·Hz and recorded with a PC using specialized software (HEM, Notocord).
# Hearts were allowed to stabilize for 30 min. All functional hemodynamic data were measured during steady state, and during volume- and pressure loading.
# Left ventricular function curves were constructed by varying pre-load pressure. For acquisition of preload curves, afterload was set at 60 mm Hg and preload was adjusted in 5 mm Hg steps over a range of 5 to 25 mm Hg. […]
# [7] = isolated hearts of ApoE deficient mice, 30 mg/kg/d p.o., 8 weeks
structure (smiles),measurement,setting,value
"O=C(NC1Cc2ccccc2C1)c1ccc(F)cc1 [compound (I), 4-fluoro-N-indan-2-yl benzamide]",EC50,"eNOS promoter; human endothelial cell line stably transfected with eNOS promoter-luciferase construct, read-out: EC50 of transcription induction ratio",800 nM
same,TIR(max) (maximum transcription induction ratio),"eNOS promoter; human endothelial cell line, ratio versus solvent alone",4.10
same,effect on eNOS protein expression,eNOS protein expression,confirmed
same,blood pressure,ApoE deficient mice [1],92±5 mmHg
same,blood pressure reduction,eNOS deficient mice [2],No blood pressure reduction could be observed
same,reduction of neo-intima formation (factor),"ApoE deficient mice [3]; 10 mg/kg/d in chow, 3 days before to 14 days after cuff surgery",2
same,neointima to media ratio,"ApoE deficient mice [3]; 10 mg/kg/d in chow, cuffed femoral artery, placebo 0.39±0.07",0.170±0.04
same,vascular eNOS expression enhanced by a factor,"ApoE deficient mice [3]; 10 mg/kg/d, aortas, quantitative western blotting",2.1
same,effect on neointima formation / eNOS expression,eNOS deficient mice [4],No effect
same,overall plaque size in % of total surface,"ApoE deficient mice [5]; 16 weeks treatment in chow, aortas, oil red O staining, placebo 13.3±2.6",5.2±1%
same,vascular eNOS expression up-regulation,"ApoE deficient mice [5]; 16 weeks treatment, femoral arteries",1.75 fold
same,coronary flow,"ApoE deficient mice [6]; isolated hearts of ApoE deficient mice treated 8 weeks with 30 mg/kg/d p.o., wildtype 4.95 ml/min",5 mL/min
same,incidence of ventricular arrhythmias,ApoE deficient mice [6]; [7],reduced
same,pre-load dependent coronary flow,ApoE deficient mice [6]; [7],improved
